# Laboratory results taken from ChEMBL document CHEMBL1201862, “PubChem BioAssay data set” (2004).
#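 Assay format: 96-well plates, 48-hour exposure. Here, GI50 denotes the concentration required for 50% inhibition of growth.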 Calls of active or inactive are those of the source. No stated cut-off is given here; in the data, active = GI50 up to about 1.1 µM and inactive = higher.
# Legend:
# Experiment in all cases: NCI anticancer screen, dose series, 48 h
# SK-OV-3 = test system: SK-OV-3
# M14 = test system: M14
# NCI-H226 = test system: NCI-H226
# HOP-92 = test system: HOP-92
# NCI-H23 = test system: NCI-H23
# SF-295 = test system: SF-295
# K562 = test system: K562
# MDA-N = test system: MDA-N
# OVCAR-8 = test system: OVCAR-8
# DU-145 = test system: DU-145
# UACC-257 = test system: UACC-257
# U-251 = test system: U-251
# SN12C = test system: SN12C
# HCT-15 = test system: HCT-15
# HCC 2998 = test system: HCC 2998
# OVCAR-3 = test system: OVCAR-3
# KM12 = test system: KM12
# LOX IMVI = test system: LOX IMVI
# SF-268 = test system: SF-268
# CCRF-CEM = test system: CCRF-CEM
SMILES,GI50 (SK-OV-3),GI50 (M14),GI50 (NCI-H226),GI50 (HOP-92),GI50 (NCI-H23),GI50 (SF-295),GI50 (K562),GI50 (MDA-N),GI50 (OVCAR-8),GI50 (DU-145),GI50 (UACC-257),GI50 (U-251),GI50 (SN12C),GI50 (HCT-15) [µM],GI50 (HCC 2998),GI50 (OVCAR-3),GI50 (KM12),GI50 (LOX IMVI),GI50 (SF-268),GI50 (CCRF-CEM)
CC(=O)O[C@@H]1C[C@]2(C(=O)c3ccccc3)C(=O)C(=O)S[C@]12c1ccccc1,50 µM (inactive),38.4 µM (inactive),52.6 µM (inactive),47.8 µM (inactive),45 µM (inactive),65.9 µM (inactive),24.8 µM (inactive),30 µM (inactive),36.4 µM (inactive),51.8 µM (inactive),55.8 µM (inactive),31.3 µM (inactive),35.8 µM (inactive),32.9,26.7 µM (inactive),69.8 µM (inactive),41.1 µM (inactive),34.3 µM (inactive),34.4 µM (inactive),–
O=c1cc(NNc2ccccc2F)[nH]c(=O)[nH]1,21.1 µM (inactive),17.7 µM (inactive),21.2 µM (inactive),15.7 µM (inactive),17.3 µM (inactive),–,21.8 µM (inactive),18.5 µM (inactive),–,43.3 µM (inactive),17.7 µM (inactive),17.7 µM (inactive),–,16,17.9 µM (inactive),17.7 µM (inactive),15.3 µM (inactive),16 µM (inactive),19.4 µM (inactive),17.5 µM (inactive)
CC(C)CC(NP(=O)(O)OC1OC(C)C(O)C(O)C1O)C(=O)NC(Cc1c[nH]c2ccccc12)C(=O)O (centres undefined),> 100 µM (inactive),> 100 µM (inactive),> 100 µM (inactive),> 100 µM (inactive),> 100 µM (inactive),> 100 µM (inactive),> 100 µM (inactive),> 100 µM (inactive),> 100 µM (inactive),> 100 µM (inactive),> 100 µM (inactive),> 100 µM (inactive),> 100 µM (inactive),> 100,> 100 µM (inactive),> 100 µM (inactive),> 100 µM (inactive),–,> 100 µM (inactive),> 100 µM (inactive)
COc1cc(S(=O)(=O)Nc2ccc(-c3csc(/N=C\c4cccs4)n3)cc2)ccc1Cl,> 100 µM (inactive),61.8 µM (inactive),57.4 µM (inactive),> 100 µM (inactive),53.1 µM (inactive),> 100 µM (inactive),42.9 µM (inactive),34.4 µM (inactive),87.5 µM (inactive),29.4 µM (inactive),51.8 µM (inactive),–,89.5 µM (inactive),> 100,29.4 µM (inactive),54.6 µM (inactive),–,36.2 µM (inactive),33.7 µM (inactive),19.8 µM (inactive)
COc1ccc2c3c1OC1c4[nH]c5ccccc5c4CC4(O)C(C2)N(C)CCC314 (centres undefined),> 100 µM (inactive),17.1 µM (inactive),–,14.3 µM (inactive),> 100 µM (inactive),82.4 µM (inactive),15.3 µM (inactive),17.3 µM (inactive),66.4 µM (inactive),57.9 µM (inactive),17.3 µM (inactive),21 µM (inactive),56.6 µM (inactive),46.6,16.4 µM (inactive),42.3 µM (inactive),30.3 µM (inactive),20.1 µM (inactive),36.6 µM (inactive),24.2 µM (inactive)
O=c1c2ccccc2nc(N/N=C/c2ccccc2O)n1-c1ccccc1,13.8 µM (inactive),4.52 µM (inactive),5.41 µM (inactive),13 µM (inactive),6.21 µM (inactive),6.4 µM (inactive),4.5 µM (inactive),7.64 µM (inactive),1.99 µM (inactive),5 µM (inactive),5.04 µM (inactive),5.2 µM (inactive),6.24 µM (inactive),2.97,5.27 µM (inactive),3.49 µM (inactive),–,4.04 µM (inactive),2.13 µM (inactive),3.27 µM (inactive)
N=C(N)SCc1cccc(-c2nc3ccccc3c(=O)o2)c1,> 100 µM (inactive),> 100 µM (inactive),> 100 µM (inactive),> 100 µM (inactive),> 100 µM (inactive),> 100 µM (inactive),> 100 µM (inactive),> 100 µM (inactive),> 100 µM (inactive),> 100 µM (inactive),> 100 µM (inactive),> 100 µM (inactive),> 100 µM (inactive),> 100,> 100 µM (inactive),> 100 µM (inactive),> 100 µM (inactive),> 100 µM (inactive),> 100 µM (inactive),–
COC(=O)[C@H](C)[C@@H]1CC[C@](C)(CCC2=C(C)CCCC2(C)C)OO1,> 25 µM (inactive),> 25 µM (inactive),–,> 25 µM (inactive),> 25 µM (inactive),> 25 µM (inactive),14.3 µM (inactive),> 25 µM (inactive),> 25 µM (inactive),> 25 µM (inactive),> 25 µM (inactive),> 25 µM (inactive),> 25 µM (inactive),> 25,> 25 µM (inactive),> 25 µM (inactive),> 25 µM (inactive),8.02 µM (inactive),> 25 µM (inactive),19.5 µM (inactive)
